Target: T1, GSPT1 (Homo sapiens, UniProt P15170+Q96SW2)
T1 construct: Whole cell lysates were prepared from MV4-11 CD33-positive AML cells; endogenous in cells; host or cells: MV4-11 (CD33-positive AML cells)
Assay: GSPT1 degradation by western blot in MV4-11 cells
Type: cell-based
Conditions: FIG. 8
Text: GSPT1 was probed by commercially available rabbit-anti-GSPT1 antibody (Abcam) followed by anti-rabbit HRP conjugated secondary antibody (Cell Signaling Technology) and detected by chemiluminescent substrate (ThermoFisher). PVDF membrane was then stripped and re-probed with beta-Actin-HRP conjugated antibody (Cell Signaling Technology).

T1 sequence (P15170 whole entry): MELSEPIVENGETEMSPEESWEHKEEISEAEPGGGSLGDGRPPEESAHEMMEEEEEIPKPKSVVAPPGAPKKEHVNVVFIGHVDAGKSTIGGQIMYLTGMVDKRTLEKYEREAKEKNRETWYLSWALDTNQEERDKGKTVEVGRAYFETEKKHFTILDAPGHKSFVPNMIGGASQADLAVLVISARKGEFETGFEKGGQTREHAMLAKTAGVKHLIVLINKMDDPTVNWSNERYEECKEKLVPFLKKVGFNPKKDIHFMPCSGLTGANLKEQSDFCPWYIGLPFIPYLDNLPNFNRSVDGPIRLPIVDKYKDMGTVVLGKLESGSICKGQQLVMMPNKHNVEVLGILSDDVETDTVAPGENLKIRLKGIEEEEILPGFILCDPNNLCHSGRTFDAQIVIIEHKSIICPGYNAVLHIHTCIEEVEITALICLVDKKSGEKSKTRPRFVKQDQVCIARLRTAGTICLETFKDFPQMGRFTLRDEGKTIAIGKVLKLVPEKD
T1 sequence (Q96SW2 whole entry): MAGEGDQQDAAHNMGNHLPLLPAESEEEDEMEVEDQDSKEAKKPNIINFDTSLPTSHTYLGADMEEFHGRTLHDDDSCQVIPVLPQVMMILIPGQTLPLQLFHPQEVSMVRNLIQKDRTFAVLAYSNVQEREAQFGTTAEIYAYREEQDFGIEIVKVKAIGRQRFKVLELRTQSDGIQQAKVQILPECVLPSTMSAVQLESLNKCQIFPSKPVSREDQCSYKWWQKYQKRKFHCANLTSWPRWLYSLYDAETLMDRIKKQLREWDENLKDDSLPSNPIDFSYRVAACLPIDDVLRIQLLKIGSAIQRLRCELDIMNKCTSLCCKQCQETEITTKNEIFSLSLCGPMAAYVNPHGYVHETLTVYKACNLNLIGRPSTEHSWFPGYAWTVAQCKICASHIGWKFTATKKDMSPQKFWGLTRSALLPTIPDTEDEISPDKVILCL
T1 sequence (Q16531 whole entry partner): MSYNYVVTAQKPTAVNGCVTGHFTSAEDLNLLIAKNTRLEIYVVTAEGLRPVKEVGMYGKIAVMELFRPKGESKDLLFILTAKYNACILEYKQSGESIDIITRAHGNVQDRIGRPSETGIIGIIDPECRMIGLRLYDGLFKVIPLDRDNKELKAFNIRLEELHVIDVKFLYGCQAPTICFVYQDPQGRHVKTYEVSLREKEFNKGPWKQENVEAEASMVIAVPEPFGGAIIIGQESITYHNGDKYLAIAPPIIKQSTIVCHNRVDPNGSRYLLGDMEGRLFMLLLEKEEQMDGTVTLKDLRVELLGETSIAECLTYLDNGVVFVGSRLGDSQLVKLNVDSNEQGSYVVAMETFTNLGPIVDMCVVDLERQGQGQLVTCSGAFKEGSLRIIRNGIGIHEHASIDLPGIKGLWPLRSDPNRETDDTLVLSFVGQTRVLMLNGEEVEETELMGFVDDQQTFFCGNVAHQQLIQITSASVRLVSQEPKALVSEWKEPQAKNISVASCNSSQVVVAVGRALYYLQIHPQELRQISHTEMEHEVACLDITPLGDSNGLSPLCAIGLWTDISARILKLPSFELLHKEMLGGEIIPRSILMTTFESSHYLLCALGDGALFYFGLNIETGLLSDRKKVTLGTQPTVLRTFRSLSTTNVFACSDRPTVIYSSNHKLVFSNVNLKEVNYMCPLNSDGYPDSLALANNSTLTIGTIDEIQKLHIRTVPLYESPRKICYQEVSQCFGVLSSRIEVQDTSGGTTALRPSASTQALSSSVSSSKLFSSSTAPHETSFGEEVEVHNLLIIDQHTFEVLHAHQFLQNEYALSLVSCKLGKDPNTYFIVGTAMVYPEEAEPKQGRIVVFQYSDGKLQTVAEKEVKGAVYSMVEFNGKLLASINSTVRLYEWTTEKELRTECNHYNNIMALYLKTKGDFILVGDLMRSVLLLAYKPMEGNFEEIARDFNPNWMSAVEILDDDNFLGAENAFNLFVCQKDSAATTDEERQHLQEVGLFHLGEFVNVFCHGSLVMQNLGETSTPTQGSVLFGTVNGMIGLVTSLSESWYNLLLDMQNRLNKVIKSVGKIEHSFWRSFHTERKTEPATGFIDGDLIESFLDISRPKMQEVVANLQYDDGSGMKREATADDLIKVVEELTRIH

durability of GSPT1 depletion (MV4-11 cells, 6, 12 and 18 hours): transient depletion | decreases in GSPT1 levels (MV4-11 cells, as short as 6 hours post-dosing): dose-dependent decreases
SMILES: CNCCOCCc1ccc(NC(=O)NCc2ccc3c(c2)CN(C2CCC(=O)NC2=O)C3=O)cc1Cl (centres unmarked) [neoDegrader P1, 1-(3-chloro-4-[2-[2-(methylamino)ethoxy]ethyl]phenyl)-3-[[2-(2,6-dioxopiperidin-3-yl)-1-oxo-3H-isoindol-5-yl]methyl]urea]

From patent US20250090681A1, “NEODEGRADER CONJUGATES” (Orum Therapeutics, Inc., priority 2021, published 2025)
